We go through three compounds from ChEMBL document CHEMBL5728415, “Heteroaryl-substituted sulfonamide compounds and their use as therapeutic agents” (2021).

Experiment [1] addresses Sodium channel protein type 8 subunit alpha (Homo sapiens, UniProt Q9UQD0). Kind of experiment: Sodium Influx Assay (In Vitro Assay): This sodium influx assay employs the use of the cell permeable, sodium sensitive dye ANG2 to quantify sodium ion influx through sodium channels which are maintained in an open state by use of sodium channel modulators. This high throughput sodium influx assay allows for rapid profiling and characterization of sodium channel blockers.In general, Trex HEK293 ….

Test in experiment [2]: as above

Chain of Sodium channel protein type 8 subunit alpha (Q9UQD0 whole entry): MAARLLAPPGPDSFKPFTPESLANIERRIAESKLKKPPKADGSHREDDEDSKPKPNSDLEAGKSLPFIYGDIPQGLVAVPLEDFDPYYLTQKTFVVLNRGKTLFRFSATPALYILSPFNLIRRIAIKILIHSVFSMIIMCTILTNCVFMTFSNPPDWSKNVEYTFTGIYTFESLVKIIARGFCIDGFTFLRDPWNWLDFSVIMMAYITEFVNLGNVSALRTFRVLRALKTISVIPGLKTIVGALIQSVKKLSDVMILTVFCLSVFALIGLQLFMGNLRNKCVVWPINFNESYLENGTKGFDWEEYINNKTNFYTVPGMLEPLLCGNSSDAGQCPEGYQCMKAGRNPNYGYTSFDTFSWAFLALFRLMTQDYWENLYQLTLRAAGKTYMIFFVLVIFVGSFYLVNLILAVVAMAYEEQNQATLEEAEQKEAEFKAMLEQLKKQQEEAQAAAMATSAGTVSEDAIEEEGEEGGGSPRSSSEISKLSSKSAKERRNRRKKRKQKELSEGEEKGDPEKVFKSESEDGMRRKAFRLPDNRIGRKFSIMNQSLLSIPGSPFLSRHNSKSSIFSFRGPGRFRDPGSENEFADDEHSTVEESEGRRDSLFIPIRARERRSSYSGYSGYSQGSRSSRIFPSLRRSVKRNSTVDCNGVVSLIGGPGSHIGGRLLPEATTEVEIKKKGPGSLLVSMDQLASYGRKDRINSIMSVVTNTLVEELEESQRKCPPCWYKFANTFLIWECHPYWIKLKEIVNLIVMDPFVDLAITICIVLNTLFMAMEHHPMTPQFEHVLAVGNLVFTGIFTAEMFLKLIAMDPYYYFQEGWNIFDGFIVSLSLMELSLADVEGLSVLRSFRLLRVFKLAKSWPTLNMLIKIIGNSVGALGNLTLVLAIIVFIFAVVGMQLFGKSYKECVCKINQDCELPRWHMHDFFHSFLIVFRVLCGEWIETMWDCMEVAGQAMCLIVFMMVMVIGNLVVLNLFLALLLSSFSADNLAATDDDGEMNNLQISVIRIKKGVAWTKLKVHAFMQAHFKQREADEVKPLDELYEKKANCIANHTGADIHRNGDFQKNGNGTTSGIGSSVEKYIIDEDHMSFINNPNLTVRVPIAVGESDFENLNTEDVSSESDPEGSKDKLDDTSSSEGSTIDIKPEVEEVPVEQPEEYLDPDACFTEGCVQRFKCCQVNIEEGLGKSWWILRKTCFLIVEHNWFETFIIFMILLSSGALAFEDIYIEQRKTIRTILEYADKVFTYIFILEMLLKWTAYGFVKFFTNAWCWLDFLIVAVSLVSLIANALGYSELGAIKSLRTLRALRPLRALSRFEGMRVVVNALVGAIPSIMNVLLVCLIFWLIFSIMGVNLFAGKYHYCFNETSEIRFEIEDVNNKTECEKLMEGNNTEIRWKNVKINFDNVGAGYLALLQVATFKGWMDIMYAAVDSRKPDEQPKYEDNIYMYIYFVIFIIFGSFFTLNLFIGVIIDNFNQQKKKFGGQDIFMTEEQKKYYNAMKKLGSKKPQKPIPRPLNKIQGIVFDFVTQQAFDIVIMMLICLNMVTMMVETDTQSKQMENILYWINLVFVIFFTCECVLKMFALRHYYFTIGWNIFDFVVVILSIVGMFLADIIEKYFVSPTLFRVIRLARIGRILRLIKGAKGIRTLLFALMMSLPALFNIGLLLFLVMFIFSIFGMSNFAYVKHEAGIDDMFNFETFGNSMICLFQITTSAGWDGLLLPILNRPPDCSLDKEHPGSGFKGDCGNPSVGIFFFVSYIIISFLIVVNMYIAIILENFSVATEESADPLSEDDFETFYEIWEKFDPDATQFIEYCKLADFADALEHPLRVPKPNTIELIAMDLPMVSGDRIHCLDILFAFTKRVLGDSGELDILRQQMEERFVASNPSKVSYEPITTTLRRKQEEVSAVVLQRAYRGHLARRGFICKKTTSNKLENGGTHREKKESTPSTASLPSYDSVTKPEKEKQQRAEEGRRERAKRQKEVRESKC

Compound `Cc1nc(S(=O)(=O)Nc2cscn2)c(F)cc1NCc1c(F)cccc1CN1C2CCC1CC2` displayed an IC50 in experiment [1] of 37 nM.

Take `Cc1cc(S(=O)(=O)Nc2cccc(F)n2)ncc1NCc1c(F)cccc1CN1CCCC1`: the midpoint of inhibition in experiment [2], the IC50, lay at 28.8 µM. On the same count and under the same terms, then `Cc1nc(NCc2c(F)cccc2CN2CCCC2)ccc1S(=O)(=O)Nc1cscn1`, with 6.18 µM.
